The text below walks through data of patent publication US20240401154A1, “SYNTHESIS AND PREPARATION OF ULTRA-LOW VISCOSITY AND HIGH MAGNETIC SUSCEPTIBILITY MAGNETIC IONIC LIQUIDS” (priority 2023, published 2024).

Type in all cases: physicochemical
Data set [1] in a line: Viscosity, Brookfield DVI cone and plate viscometer. As to conditions: 21.7° C.; neat MIL dried 48 hours under vacuum. The protocol: A Brookfield DVI cone and plate viscometer equipped with a CPA-51Z cone spindle was employed to obtain viscosity measurements at […] using approximately 0.5 g of each MIL after extensive drying for 48 hours under vacuum. Viscosity measurements were conducted at 21.7° C. for 15 lanthanide and transition metal MILs examined in this study.
Viscosity measurements were conducted at 21.7° C. for 15 lanthanide and transition metal MILs examined in this study.

Data set [2] is described as follows: Effective magnetic moment from magnetic susceptibility balance (MSB). As to conditions: per formula unit. The protocol:
Magnetic properties were analyzed using a magnetic susceptibility balance (MSB, Sherwood Scientific, Cambridge, UK) and a Quantum Design Superconducting Quantum Interference Device (SQUID) magnetometer (MPMS XL-7). The magnetic properties of transition metal MILs were further studied using a SQUID magnetometer to confirm their paramagnetic nature as well as if any magnetic transition occurs in the samples.
Magnetic susceptibility (XM) was calculated through Equation (1).
Effective magnetic moment (μeff) was calculated through Equation (2). In Equation (2), T represents the temperature at which the magnetic susceptibility measurements were conducted.
15 MILs incorporating rare-earth and transition metals were examined using a magnetic susceptibility balance (MSB).

Data set [3] is described as follows: Solubility of MILs in organic solvents and water. The text has this:
The solubility of lanthanide and transition metal MILs was investigated in popular traditional organic solvents. […]
The solubility of lanthanide and transition metal MILs was investigated in popular traditional organic solvents.

A short description of data set [4]: Thermal stability, MIL as GC stationary phase with FID. As to conditions: exponential increase in response beyond 2,000 pA. The procedure: (§1) The thermal stability of MILs was measured from 40 to 350° C. at a ramp rate of 5° C. min^−1 by performing thermogravimetric analysis (TGA) using a NETZSCH STA 449 F1 Jupiter thermal analyzer (Selb, Germany). To further investigate the thermal stability of MILs using a more sensitive technique, the solvents were employed as a gas chromatographic (GC) stationary phase and subjected to an oven temperature program from 40 to 200° C. at a ramp rate of 1° C. min^−1 and decomposition/degradation products detected using an ultra-sensitive flame ionization detector (FID), with all measurements being performed on an Agilent Technologies 7890B gas chromatograph (Santa Clara, CA, USA).
To further investigate the thermal stability of MILs using a more sensitive technique, the solvents were employed as a gas chromatographic (GC) stationary phase and subjected to an oven temperature program from 40 to 200° C. at a ramp rate of 1° C. min^−1 and decomposition/degradation products detected using an ultra-sensitive flame ionization detector (FID).

The nature of data set [5]: Thermal stability by thermogravimetric analysis (TGA). As to conditions: TGA at 10% weight loss. The procedure:
as §1
Volitization/degradation of MILs as a function of temperature were measured using thermogravimetric analysis. The thermal stability of magnetic ionic liquids was measured from 40 to 350° C. at a ramp rate of 5° C. min^−1 by performing thermogravimetric analysis (TGA) using a NETZSCH STA 449 F1 Jupiter thermal analyzer (Selb, Germany).
To investigate the ability of DGE-based MILs to withstand elevated temperatures without undergoing degradation/decomposition, their thermal stabilities were investigated using thermogravimetric analysis (TGA). FIG. 13 through FIG. 27 display thermograms for MILs 1 to 15. The thermogram results are summarized in greater detail in the following paragraphs.

Where [6] appears, read: acetone, chloroform, dichloromethane, acetonitrile, methanol, ethanol, diethyl ether, ethyl acetate, isopropanol at 20% (w/v).
Where [7] appears, read: hexane, heptane, benzene, toluene at 10% (w/v).
Setting [8] is: hexane, heptane, benzene, toluene at 20% (w/v).
Where [9] appears, read: twelve organic solvents (without acetonitrile) at 50% (w/v).

Marks after values point to notes of the source that are not given here.

Regarding `CCCCCCCCOC(=O)COCC(=O)OCCCCCCCC.CCCCCCCCOC(=O)COCC(=O)OCCCCCCCC.CCCCCCCCOC(=O)COCC(=O)OCCCCCCCC.CCCCCCCCOC(=O)COCC(=O)OCCCCCCCC.CCCCCCCCOC(=O)COCC(=O)OCCCCCCCC.CCCCCCCCOC(=O)COCC(=O)OCCCCCCCC.O=C(C=C([O-])C(F)(F)F)C(F)(F)F.O=C(C=C([O-])C(F)(F)F)C(F)(F)F.O=C(C=C([O-])C(F)(F)F)C(F)(F)F.O=C(C=C([O-])C(F)(F)F)C(F)(F)F.O=C(C=C([O-])C(F)(F)F)C(F)(F)F.O=C(C=C([O-])C(F)(F)F)C(F)(F)F.O=C(C=C([O-])C(F)(F)F)C(F)(F)F.O=C(C=C([O-])C(F)(F)F)C(F)(F)F.[Co+2].[Ho+3].[Ho+3]` [compound 15], in data set [1], the “Viscosity (cP)” value came to 216.4 cP. In data set [2], the “μeff, effective magnetic moment” value worked out at 15.56 μB. For the same compound, the Solubility entry in data set [3] (setting [6]) is “S^b (soluble in acetone, chloroform, dichloromethane, acetonitrile, methanol, ethanol, diethyl ether, ethyl acetate, and isopropanol at 20% (w/v).)”; in data set [3] (setting [7]) it was “S^a (soluble in hexane, heptane, benzene, and toluene at 10% (w/v).)”; in data set [3] (setting [8]), “S^c (soluble in hexane, heptane, benzene, and toluene at 20% (w/v).)”; in data set [3] (setting [9]), “S^d (soluble in acetone, chloroform, dichloromethane, methanol, ethanol, diethyl ether, ethyl acetate, isopropanol hexane, heptane, benzene, and toluene at 50% (w/v).)”; in data set [3] (water at 0.01% (w/v)), “S^f (insoluble in water at 0.01% (w/v).)”. Also, the “Onset of MIL volatilization (° C.)^1” value in data set [4] was found to be 115 °C. Moreover, in data set [5], the “Onset of MIL volatilization (° C.)^2” value worked out at 183.3 °C.
Turning to `CCCCCCCCOC(=O)c1ccc(C(=O)OCCCCCCCC)o1.CCCCCCCCOC(=O)c1ccc(C(=O)OCCCCCCCC)o1.CCCCCCCCOC(=O)c1ccc(C(=O)OCCCCCCCC)o1.CCCCCCCCOC(=O)c1ccc(C(=O)OCCCCCCCC)o1.CCCCCCCCOC(=O)c1ccc(C(=O)OCCCCCCCC)o1.CCCCCCCCOC(=O)c1ccc(C(=O)OCCCCCCCC)o1.O=C(C=C([O-])C(F)(F)F)C(F)(F)F.O=C(C=C([O-])C(F)(F)F)C(F)(F)F.O=C(C=C([O-])C(F)(F)F)C(F)(F)F.O=C(C=C([O-])C(F)(F)F)C(F)(F)F.O=C(C=C([O-])C(F)(F)F)C(F)(F)F.O=C(C=C([O-])C(F)(F)F)C(F)(F)F.[Co+2].[Co+2].[Co+2]` [compound 10], in data set [1], the “Viscosity (cP)” value is recorded as 354.7^b cP. Also, the “μeff, effective magnetic moment” value in data set [2] turned out to be 8.27 μB. In addition, the Solubility result is “S^b (soluble in acetone, chloroform, dichloromethane, acetonitrile, methanol, ethanol, diethyl ether, ethyl acetate, and isopropanol at 20% (w/v).)” in data set [3] (setting [6]); “S^a (soluble in hexane, heptane, benzene, and toluene at 10% (w/v).)” in data set [3] (setting [7]); “S^c (soluble in hexane, heptane, benzene, and toluene at 20% (w/v).)” in data set [3] (setting [8]); “S^d (soluble in acetone, chloroform, dichloromethane, methanol, ethanol, diethyl ether, ethyl acetate, isopropanol hexane, heptane, benzene, and toluene at 50% (w/v).)” in data set [3] (setting [9]); “S^f (insoluble in water at 0.01% (w/v).)” in data set [3] (water at 0.01% (w/v)). Further, in data set [4], the “Onset of MIL volatilization (° C.)^1” value was found to be 147 °C. In addition, in data set [5], the “Onset of MIL volatilization (° C.)^2” value was found to be 163.0 °C.
Take `CCCCCCCCOC(=O)COCC(=O)OCCCCCCCC.CCCCCCCCOC(=O)COCC(=O)OCCCCCCCC.CCCCCCCCOC(=O)COCC(=O)OCCCCCCCC.CCCCCCCCOC(=O)COCC(=O)OCCCCCCCC.CCCCCCCCOC(=O)COCC(=O)OCCCCCCCC.CCCCCCCCOC(=O)COCC(=O)OCCCCCCCC.O=C(C=C([O-])C(F)(F)F)C(F)(F)F.O=C(C=C([O-])C(F)(F)F)C(F)(F)F.O=C(C=C([O-])C(F)(F)F)C(F)(F)F.O=C(C=C([O-])C(F)(F)F)C(F)(F)F.O=C(C=C([O-])C(F)(F)F)C(F)(F)F.O=C(C=C([O-])C(F)(F)F)C(F)(F)F.[Co+2].[Co+2].[Co+2]` [compound 4]: the “Viscosity (cP)” value in data set [1] is listed as 31.6 cP. Besides, the “μeff, effective magnetic moment” value in data set [2] is given as 8.57 μB. Further, the Solubility result in data set [3] (setting [6]) is “S^b (soluble in acetone, chloroform, dichloromethane, acetonitrile, methanol, ethanol, diethyl ether, ethyl acetate, and isopropanol at 20% (w/v).)”; in data set [3] (setting [7]), “S^a (soluble in hexane, heptane, benzene, and toluene at 10% (w/v).)”; in data set [3] (setting [8]), “S^c (soluble in hexane, heptane, benzene, and toluene at 20% (w/v).)”; in data set [3] (setting [9]), “S^d (soluble in acetone, chloroform, dichloromethane, methanol, ethanol, diethyl ether, ethyl acetate, isopropanol hexane, heptane, benzene, and toluene at 50% (w/v).)”; in data set [3] (water at 0.01% (w/v)), “S^f (insoluble in water at 0.01% (w/v).)”. Moreover, the “Onset of MIL volatilization (° C.)^1” value in data set [4] was 185 °C. Also, the “Onset of MIL volatilization (° C.)^2” value in data set [5] was found to be 262.9 °C.
For `CCCCCCCCOC(=O)COCC(=O)OCCCCCCCC.CCCCCCCCOC(=O)COCC(=O)OCCCCCCCC.CCCCCCCCOC(=O)COCC(=O)OCCCCCCCC.CCCCCCCCOC(=O)COCC(=O)OCCCCCCCC.CCCCCCCCOC(=O)COCC(=O)OCCCCCCCC.CCCCCCCCOC(=O)COCC(=O)OCCCCCCCC.O=C(C=C([O-])C(F)(F)F)C(F)(F)F.O=C(C=C([O-])C(F)(F)F)C(F)(F)F.O=C(C=C([O-])C(F)(F)F)C(F)(F)F.O=C(C=C([O-])C(F)(F)F)C(F)(F)F.O=C(C=C([O-])C(F)(F)F)C(F)(F)F.O=C(C=C([O-])C(F)(F)F)C(F)(F)F.O=C(C=C([O-])C(F)(F)F)C(F)(F)F.O=C(C=C([O-])C(F)(F)F)C(F)(F)F.[Co+2].[Dy+3].[Dy+3]` [compound 13], the “Viscosity (cP)” value in data set [1] is on record as 137.2 cP. For the same compound, the “μeff, effective magnetic moment” value in data set [2] came to 15.38 μB. The Solubility entry in data set [3] (setting [6]) was “S^b (soluble in acetone, chloroform, dichloromethane, acetonitrile, methanol, ethanol, diethyl ether, ethyl acetate, and isopropanol at 20% (w/v).)”; in data set [3] (setting [7]), “S^a (soluble in hexane, heptane, benzene, and toluene at 10% (w/v).)”; in data set [3] (setting [8]), “S^c (soluble in hexane, heptane, benzene, and toluene at 20% (w/v).)”; in data set [3] (setting [9]), “S^d (soluble in acetone, chloroform, dichloromethane, methanol, ethanol, diethyl ether, ethyl acetate, isopropanol hexane, heptane, benzene, and toluene at 50% (w/v).)”; in data set [3] (water at 0.01% (w/v)) it was “S^f (insoluble in water at 0.01% (w/v).)”. In addition, the “Onset of MIL volatilization (° C.)^1” value in data set [4] worked out at 131 °C. For the same compound, in data set [5], the “Onset of MIL volatilization (° C.)^2” value was found to be 182.3 °C.
Take `CCCCCCCCOC(=O)c1ccc(C(=O)OCCCCCCCC)o1.CCCCCCCCOC(=O)c1ccc(C(=O)OCCCCCCCC)o1.CCCCCCCCOC(=O)c1ccc(C(=O)OCCCCCCCC)o1.CCCCCCCCOC(=O)c1ccc(C(=O)OCCCCCCCC)o1.CCCCCCCCOC(=O)c1ccc(C(=O)OCCCCCCCC)o1.CCCCCCCCOC(=O)c1ccc(C(=O)OCCCCCCCC)o1.O=C(C=C([O-])C(F)(F)F)C(F)(F)F.O=C(C=C([O-])C(F)(F)F)C(F)(F)F.O=C(C=C([O-])C(F)(F)F)C(F)(F)F.O=C(C=C([O-])C(F)(F)F)C(F)(F)F.O=C(C=C([O-])C(F)(F)F)C(F)(F)F.O=C(C=C([O-])C(F)(F)F)C(F)(F)F.[Mn+2].[Mn+2].[Mn+2]` [compound 12]: the “Viscosity (cP)” value in data set [1] was 291.8^b cP. Also, the “μeff, effective magnetic moment” value in data set [2] is 10.04 μB. In addition, the Solubility entry in data set [3] (setting [6]) was “S^b (soluble in acetone, chloroform, dichloromethane, acetonitrile, methanol, ethanol, diethyl ether, ethyl acetate, and isopropanol at 20% (w/v).)”; in data set [3] (setting [7]) it was “S^a (soluble in hexane, heptane, benzene, and toluene at 10% (w/v).)”; in data set [3] (setting [8]) it was “S^c (soluble in hexane, heptane, benzene, and toluene at 20% (w/v).)”; in data set [3] (setting [9]), “S^d (soluble in acetone, chloroform, dichloromethane, methanol, ethanol, diethyl ether, ethyl acetate, isopropanol hexane, heptane, benzene, and toluene at 50% (w/v).)”; in data set [3] (water at 0.01% (w/v)), “S^f (insoluble in water at 0.01% (w/v).)”. Also, in data set [4], the “Onset of MIL volatilization (° C.)^1” value came out at 144 °C. In addition, the “Onset of MIL volatilization (° C.)^2” value in data set [5] was determined as 160.4 °C.
